Results on one compound are retold here after patent US12121525B2, “Methods for treating GI syndrome and graft versus host disease” (Sloan Kettering Institute for Cancer Research, priority 2007, dated 2024).

The test system of one assay is C57BL/6 splenocytes. Nature of the assay: MLR-primed CTL-induced splenocyte lysis (51Cr release). In kind it is cell-based, mouse. To be noted: 500 nM. As to the method: To show the generic role of target cell ASMase in T cell-induced lysis, we used two standardized assays for T cell function; MLR-primed CTL-induced splenocyte lysis (FIG. 17) and in vitro activation-induced cell death (AICD) of T cells (FIG. 18). The role of target cell ASMase was assessed in an in vitro activated MLR, in which C57BL/6 splenocyte target cells of asmase^+/+ or asmase^−/− genotype were stimulated for 48 hrs with mitogen, washed and chromium labeled. These cells were then coincubated with effector Balb/c splenocytes activated for 5 days by culture with irradiated C57BL/6 splenocytes. Chromium release was quantified and the % lysis was calculated. […] Washed splenocytes cells were coincubated with increasing ratios of activated effector Balb/c T cells, and ^51Cr release was quantified 6 hour thereafter. […]
To evaluate a potential generic role for target cell ASMase in platform generation in T cell-induced lysis, we tested two standardized assays for T cell-mediated cytolysis, MLR-primed CTL-induced splenocyte lysis, and in vitro AICD of T cells. […] Furthermore, MLR-primed CTLs induced 43.2±6.5% asmase^+/+ splenocyte lysis at an effector:target ratio of 50:1 (FIG. 19B), attenuated to 7.3±2.5% lysis in asmase^−/− target cells, as quantified by ^51Cr-release assay. […]

The test system of a further assay is splenic T cells. Nature of the assay: Activation-induced cell death (AICD) assay, T cell apoptosis. In kind it is cell-based, mouse. The conditions noted are these: 500 nM; 16 hr. From the text: To define a role for target cell ASMase in AICD, asmase^+/+, asmase^−/− or MRL.1pr (FasR^−/−) T cells were stimulated for 24 hr with 10 microgam/ml ConA, washed, rested in medium containing 20 U/ml rIL-2 for 24 hr, and finally AICD was initiated by restimulation in medium containing 20 U/ml rIL-2 and increasing concentrations of plate bound anti-CD3 mAb for 24 hr. AICD induction by anti-CD3 mAb conferred ceramide-rich platform generation 4 hr following stimulation (FIG. 19D), evident in 26.4±1.6% of the population of asmase^+/+ T cells compared to 5.1±1.0% of asmase^−/− T cells (p<0.005). Confocal analysis identified colocalization of the sphingolipid GM1 (FIG. 19E) and Fas within ceramide-rich platforms in asmase^+/+ T cells.
To characterize the impact of platform generation on AICD, asmase^+/+ and asmase^−/− T cells were induced to undergo AICD and apoptosis was quantified 16 hr thereafter. Apoptosis in asmase^+/+ T cells was anti-CD3 mAb dose-dependent, reaching 32.9±5.2% apoptosis 16 hr post induction (FIG. 19F). […]
Harvested splenocytes were enriched for T lymphocytes by nylon wool passage, resulting in >90% purity based upon FITC-CD3 mAb staining by flow cytometry. […] Cells were subsequently fixed, stained with 25 μl of 24 μg/ml bis-benzimide trihydrochloride solution (Hoechst #33258; Sigma-Aldrich, Milwaukee Wisc.) and apoptosis was quantified by fluorescence microscopy, as above.

Consider `CCCCCCCCCCCCC/C=C/[C@@H](O)[C@H](CO)NC(=O)CCCCCCCCCCCCCCC` [C16-ceramide], for which, in the assay on C57BL/6 splenocytes, the “CTL-induced lysis of asmase−/− target splenocytes” value is “restored”. The “apoptosis of asmase−/− T cells stimulated to undergo AICD” value in the assay with splenic T cells was “completely restored”.
